Data as given in patent publication US20230091225A1, “Bifunctional chimeric heterocyclic compounds for targeted degradation of androgen receptors and use thereof” (HINOVA PHARMACEUTICALS INC., priority 2019, published 2023).
Like-named read-outs stand apart in the source and are kept apart here.

Target: T1, androgen receptor (AR) (Homo sapiens, UniProt P10275)
T1 sequence (P10275 1-920): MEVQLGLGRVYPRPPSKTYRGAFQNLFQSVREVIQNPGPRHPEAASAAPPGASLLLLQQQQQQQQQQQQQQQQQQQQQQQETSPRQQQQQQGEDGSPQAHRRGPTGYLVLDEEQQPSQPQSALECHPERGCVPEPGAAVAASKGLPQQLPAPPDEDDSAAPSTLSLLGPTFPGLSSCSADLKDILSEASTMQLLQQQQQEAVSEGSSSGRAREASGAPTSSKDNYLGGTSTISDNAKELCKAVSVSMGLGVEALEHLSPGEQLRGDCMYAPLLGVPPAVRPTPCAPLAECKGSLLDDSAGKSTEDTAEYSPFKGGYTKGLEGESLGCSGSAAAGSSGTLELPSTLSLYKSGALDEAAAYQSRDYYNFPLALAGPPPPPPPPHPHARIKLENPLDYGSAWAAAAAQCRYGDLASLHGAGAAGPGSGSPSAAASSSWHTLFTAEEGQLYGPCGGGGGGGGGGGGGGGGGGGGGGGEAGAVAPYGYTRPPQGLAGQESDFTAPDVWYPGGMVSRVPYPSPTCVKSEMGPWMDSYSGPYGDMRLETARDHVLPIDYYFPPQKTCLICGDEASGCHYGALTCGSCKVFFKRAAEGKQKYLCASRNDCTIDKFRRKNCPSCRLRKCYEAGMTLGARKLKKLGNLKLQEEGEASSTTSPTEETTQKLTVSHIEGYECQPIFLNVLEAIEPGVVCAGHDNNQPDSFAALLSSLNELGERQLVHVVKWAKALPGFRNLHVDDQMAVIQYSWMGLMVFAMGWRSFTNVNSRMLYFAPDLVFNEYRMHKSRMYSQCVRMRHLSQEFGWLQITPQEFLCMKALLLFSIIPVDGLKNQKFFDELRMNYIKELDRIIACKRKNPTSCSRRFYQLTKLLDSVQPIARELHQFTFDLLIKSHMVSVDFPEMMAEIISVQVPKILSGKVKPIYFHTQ
Experiment: Degradation of androgen receptor (AR) protein in VCaP cells by ELISA
Assay type: cell-based
Conditions: for Dmax: VCaP; for inhibition at 0.1 µM: percentage of degraded AR at 100 nM, read-out: % degradation

[1] = AR degradation, VCaP cells, 16 h, ELISA, Table 3-1, read-out: DC50
[2] = AR degradation, VCaP cells, 16 h, ELISA, Table 3-1, read-out: Dmax (%)

Row | Compound | DC50 [1] [nM] | Dmax [2] [%] | other results
1 | N#Cc1ccc(OC2CCC(NC(=O)c3cnc(N4C[C@H]5CC[C@@H](C4)N5C[C@H]4[C@@H]5CN(c6cc7c(cc6F)C(=O)N(C6CCC(=O)NC6=O)C7=O)C[C@@H]54)cn3)CC2)cc1Cl (stereo partly shown) [Compound 240] | – | – | DC50: 10 to 100 nM; Dmax: 60 to 80%
2 | Cc1ncsc1-c1ccc([C@H](C)NC(=O)[C@@H]2C[C@@H](O)CN2C(=O)[C@@H](NC(=O)COCCCCC#Cc2ccc3c(n2)CN([C@H]2C(C)(C)[C@H](Oc4ccc(C#N)c(Cl)c4)C2(C)C)C3=O)C(C)(C)C)cc1 [Compound 36, (2S,4R)-1-((S)-2-(2-((6-(6-((1r,3r)-3-(3-chloro-4-cyanophenoxy)-2,2,4,4-tetramethylcyclobutyl)-5-oxo-6,7-dihydro-5H-pyrrolo[3,4-b]pyridin-2-yl)hex-5-yn-1-yl)oxy)acetylamino)-3,3-dimethylbutyryl)-4-hydroxy-N-((S)-1-(4-(4-methylthiazol-5-yl)phenyl)ethyl)pyrrolidine-2-carboxamide] | – | – | inhibition at 0.1 µM (VCaP cells, 16 h, ELISA): 25 to 49%
3 | [2H]C([2H])([2H])Oc1cc(O[C@H]2CC[C@H](NC(=O)c3cnc(N4CCC(CN5CCC6(CC5)CN(c5ccc7c(c5)C(=O)N(C5CCC(=O)NC5=O)C7=O)C6)CC4)nn3)CC2)ccc1C#N (stereo partly shown) [Compound 197, N-((1r,4r)-4-(4-cyano-3-(methoxy-d3)phenoxy)cyclohexyl)-3-(4-((2-(2-(2,6-dioxopiperidin-3-yl)-1,3-dioxoisoindolin-5-yl)-2,7-diazaspiro[3.5]nonan-7-yl)methyl)piperidin-1-yl)-1,2,4-triazine-6-carboxamide] | – | – | inhibition at 0.1 µM (VCaP cells, 16 h, ELISA): > 80%
4 | COc1cc(O[C@H]2C(C)(C)[C@H](N3Cc4nc(C#C[C@H]5CC[C@H](N6CCN(c7cc8c(cc7F)C(=O)N(C7CCC(=O)NC7=O)C8=O)CC6)CC5)ccc4C3=O)C2(C)C)ccc1C#N (stereo partly shown) [Compound 399] | – | – | DC50 (AR degradation, VCaP cells, 16 h, ELISA, Table 3-2, read-out: DC50): < 10 nM; Dmax (AR degradation, VCaP cells, 16 h, ELISA, Table 3-2, read-out: Dmax (%)): > 80%
5 | N#Cc1ccc(O[C@H]2CC[C@H](NC(=O)c3ccc(N4CC5(CCN(CC6CCN(c7ccc8c(c7)C(=O)N(C7CCC(=O)NC7=O)C8=O)CC6)CC5)C4)cc3)CC2)cc1Cl (stereo partly shown) [Compound 194, N-((1r,4r)-4-(3-chloro-4-cyanophenoxy)cyclohexyl)-4-(7-((1-(2-(2,6-dioxopiperidin-3-yl)-1,3-dioxoisoindolin-5-yl)piperidine-4-yl)methyl)-2,7-diazaspiro[3.5]nonan-2-yl)benzamide] | < 10 | > 80 | –
6 | [2H]C([2H])([2H])N(C(=O)c1ccc(N2CCC(CN3CCN(c4cc5c(cc4F)C(=O)N(C4CCC(=O)NC4=O)C5=O)CC3)CC2)nn1)[C@H]1CC[C@H](Oc2ccc(C#N)c(Cl)c2)CC1 (stereo partly shown) [Compound 133, N-((1r,4r)-4-(3-chloro-4-cyanophenoxy)cyclohexyl)-6-(4-((4-(2-(2,6-dioxopiperidin-3-yl)-6-fluoro-1,3-dioxoisoindolin-5-yl)piperazin-1-yl)methyl)piperidin-1-yl)-N-deuteromethyl-pyridazine-3-amide] | – | – | DC50: > 300 nM; Dmax: < 40%
7 | COCCOc1cc(O[C@H]2CC[C@H](NC(=O)c3ccc(N4CCC(CN5CCC6(CC5)CN(c5ccc7c(c5)C(=O)N(C5CCC(=O)NC5=O)C7=O)C6)CC4)nn3)CC2)ccc1C#N (stereo partly shown) [Compound 155] | – | – | DC50: < 10 nM; Dmax: > 80%
8 | C[C@H]1CN(c2cnc(C(=O)N[C@H]3CC[C@H](Oc4ccc(C#N)c(Cl)c4)CC3)cn2)CCN1C[C@H]1[C@@H]2CN(c3cc4c(cc3F)C(=O)N(C3CCC(=O)NC3=O)C4=O)C[C@@H]21 (stereo partly shown) [Compound 169] | 10 to 100 | 60 to 80 | –
9 | Cc1cc(O[C@H]2CC[C@H](NC(=O)c3ccc(N4CCC(CN5CCC6(CC5)CN(c5ccc7c(c5)C(=O)N(C5CCC(=O)NC5=O)C7=O)C6)CC4)nn3)CC2)ccc1C#N (stereo partly shown) [Compound 275] | – | – | DC50: < 10 nM; Dmax: > 80%
10 | C[C@H]1CN(C[C@@H]2[C@H]3CN(c4cc5c(cc4F)C(=O)N(C4CCC(=O)NC4=O)C5=O)C[C@@H]23)CCN1c1cnc(C(=O)N[C@H]2CC[C@H](Oc3ccc(C#N)c(Cl)c3)CC2)cn1 (stereo partly shown) [Compound 171] | 10 to 100 | > 80 | –
11 | N#Cc1ccc(O[C@H]2CC[C@H](NC(=O)c3ccc(N4C[C@H]5CC[C@@H](C4)N5C[C@H]4[C@@H]5CN(c6cc7c(cc6F)C(=O)N(C6CCC(=O)NC6=O)C7=O)C[C@@H]54)nn3)CC2)cc1Cl (stereo partly shown) [Compound 239] | – | – | DC50: 10 to 100 nM; Dmax: 60 to 80%
12 | N#Cc1ccc(O[C@H]2CC[C@H](NC(=O)c3ccc(N4CCC5(CCN(C6CCN(c7cc8c(cc7F)C(=O)N(C7CCC(=O)NC7=O)C8=O)CC6)C5)C4)nn3)CC2)cc1Cl (stereo partly shown) [Compound 166, N-((1r,4r)-4-(3-chloro-4-cyanophenoxy)cyclohexyl)-6-(7-(1-(2-(2,6-dioxopiperidin-3-yl)-6-fluoro-1,3-dioxoisoindolin-5-yl)piperidine-4-yl)-2,7-diazaspiro[4.4]nonan-2-yl)pyridazine-3-formamide] | < 10 | > 80 | –

Now from value to compound, other results behind:

Row | DC50 [1] [nM] | Dmax [2] [%] | Compound | other results
13 | > 300 | < 40 | CC1(C)[C@H](Oc2ccc(C#N)c(Cl)c2)C(C)(C)[C@H]1N1Cc2nc(C#CC3CCC(N4CCC5(CN(c6ccc7c(c6)C(=O)N(C6CCC(=O)NC6=O)C7=O)C5)C4)CC3)ccc2C1=O (stereo partly shown) [Compound 372] | –
14 | < 10 | > 80 | N#Cc1ccc(O[C@H]2CC[C@H](NC(=O)c3ccc(N4CCC(N5CCC6(CC5)CN(c5ccc7c(c5)C(=O)N(C5CCC(=O)NC5=O)C7=O)C6)CC4)nn3)CC2)cc1Cl (stereo partly shown) [Compound 281, N-((1r,4r)-4-(3-chloro-4-cyanophenoxy)cyclohexyl)-6-(4-(2-(2-(2,6-dioxopiperidin-3-yl)-1,3-dioxoisoindolin-5-yl)-2,7-diazaspiro[3.5]nonan-7-yl)piperidin-1-yl)pyridazine-3-formamide] | –
15 | < 10 | > 80 | CC1(C)[C@H](Oc2ccc(C#N)c(Cl)c2)C(C)(C)[C@H]1N1Cc2nc(C#C[C@H]3C[C@H](N4CCN(c5cc6c(cc5F)C(=O)N(C5CCC(=O)NC5=O)C6=O)CC4)C3)ccc2C1=O (stereo partly shown) [Compound 357] | –
16 | < 10 | 60 to 80 | CC1(C)[C@H](Oc2ccc(C#N)c(Cl)c2)C(C)(C)[C@H]1N1Cc2nc(C#CC3CN(C4CN(c5cc6c(cc5F)C(=O)N(C5CCC(=O)NC5=O)C6=O)C4)C3)ccc2C1=O (stereo partly shown) [Compound 322] | –
17 | < 10 | – | CC1(C)[C@H](Oc2ccc(C#N)c(Cl)c2)C(C)(C)[C@H]1N1Cc2nc(C#CC3CCC(N4CCC5(CN(c6cc7c(cc6F)C(=O)N(C6CCC(=O)NC6=O)C7=O)C5)C4)CC3)ccc2C1=O (stereo partly shown) [Compound 375] | –
18 | < 10 | 60 to 80 | CC1(C)[C@H](Oc2ccc(C#N)c(Cl)c2)C(C)(C)[C@H]1N1Cc2nc(N3CCC(CN4CCN(c5cc6c(cc5F)C(=O)N(C5CCC(=O)NC5=O)C6=O)CC4)CC3)cnc2C1=O (stereo partly shown) [Compound 384] | –
19 | < 10 | > 80 | N#Cc1ccc(O[C@H]2CC[C@H](NC(=O)c3cnc(N4CCC(CN5CCC6(CC5)CN(c5cc7c(cc5F)C(=O)N(C5CCC(=O)NC5=O)C7=O)C6)CC4)nc3)CC2)cc1Cl (stereo partly shown) [Compound 268] | –
20 | < 10 | > 80 | N#Cc1ccc(O[C@H]2CC[C@H](NC(=O)c3cnc(N4CCC(N5CC6(CCN(c7cc8c(cc7F)C(=O)N(C7CCC(=O)NC7=O)C8=O)CC6)C5)CC4)cn3)CC2)cc1C(F)(F)F (stereo partly shown) [Compound 236, N-((1r,4r)-4-(4-cyano-3-(trifluoromethyl)phenoxy)cyclohexyl)-5-(4-(7-(2-(2,6-dioxopiperidin-3-yl)-6-fluoro-1,3-dioxoisoindolin-5-yl)-2,7-diazaspiro[3.5]nonan-2-yl)piperidin-1-yl)pyrazine-2-carboxamide] | –
